Activity calls are given as the source filed them. The calls are words filed in the database; no cut-off is given here.
How the values were obtained:
[1] = target: T1, Stimulator of interferon genes protein (Homo sapiens, UniProt Q86WV6); assay: Agonist activity at human STING HAQ variant in human THP1-Blue ISG cells assessed as fold change in stimulation activity measured after 24 hrs incubation by QUANTI-Blue based microplate reader; type: cell-based
Target sequence in this assay (Q86WV6 whole entry, looked up, change not shown): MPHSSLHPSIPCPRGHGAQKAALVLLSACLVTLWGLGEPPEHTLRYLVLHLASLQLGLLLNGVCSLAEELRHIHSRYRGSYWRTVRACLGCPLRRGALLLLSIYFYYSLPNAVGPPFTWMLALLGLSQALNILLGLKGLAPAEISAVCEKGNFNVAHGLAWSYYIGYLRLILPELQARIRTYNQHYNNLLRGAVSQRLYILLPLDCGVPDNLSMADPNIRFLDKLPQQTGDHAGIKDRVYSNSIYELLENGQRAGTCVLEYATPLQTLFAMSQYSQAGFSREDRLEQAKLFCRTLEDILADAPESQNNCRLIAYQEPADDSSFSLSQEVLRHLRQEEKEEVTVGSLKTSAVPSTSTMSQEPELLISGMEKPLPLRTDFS

[2] = target: T1, Stimulator of interferon genes protein; assay: Agonist activity at STING R232 mutant (unknown origin) expressed in human THP1-Dual cells assessed as fold change in stimulation activity measured after 24 hrs incubation by QUANTI-Luc4 based microplate reader; type: cell-based
Target sequence in this assay (Q86WV6 whole entry, looked up, change not shown): as above

[3] = target: T2, Stimulator of interferon genes protein (Mus musculus, UniProt Q3TBT3); assay: Agonist activity at mouse STING expressed in human THP1-Dual cells assessed as fold change in stimulation activity measured after 24 hrs incubation by QUANTI-Luc4 based microplate reader; type: cell-based
T2 sequence (Q3TBT3 whole entry): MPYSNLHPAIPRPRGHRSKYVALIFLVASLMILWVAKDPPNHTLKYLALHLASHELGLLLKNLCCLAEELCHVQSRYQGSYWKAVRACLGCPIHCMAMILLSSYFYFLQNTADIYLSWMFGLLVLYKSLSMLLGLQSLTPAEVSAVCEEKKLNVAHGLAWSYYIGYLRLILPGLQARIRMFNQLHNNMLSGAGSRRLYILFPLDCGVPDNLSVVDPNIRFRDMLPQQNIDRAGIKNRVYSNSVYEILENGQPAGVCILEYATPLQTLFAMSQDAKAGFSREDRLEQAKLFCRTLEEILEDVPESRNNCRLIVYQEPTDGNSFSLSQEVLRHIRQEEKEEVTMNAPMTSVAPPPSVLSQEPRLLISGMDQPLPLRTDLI

[4] = target: T1, Stimulator of interferon genes protein; assay: Binding affinity to wild type His-tagged STING (unknown origin) measured after 3 hrs incubation by HTRF assay
Target sequence in this assay (Q86WV6 whole entry): as the sequence (Q86WV6 whole entry, looked up, change not shown) above

[5] = AUC in mouse at 5 mg/kg, iv by LC-MS/MS analysis; type: ADME, organism-based; conditions: in vivo
MC-38 [6] = assay: In vivo antitumor activity against mouse MC-38 cells inoculated in C57BL/6 mouse assessed as as increase in moue survival time at 60 mg/kg, po Q3D measured for 15 to 20 days; type: functional, organism-based; conditions: time 15-20 day
[7] = Cmax in mouse at 10 mg/kg, po by LC-MS/MS analysis; type: ADME, organism-based; conditions: in vivo
[8] = Cmax in mouse at 5 mg/kg, iv by LC-MS/MS analysis; type: ADME, organism-based; conditions: in vivo
[9] = Oral bioavailability in mouse at 10 mg/kg by LC-MS/MS analysis; type: ADME, organism-based; conditions: in vivo
[10] = Clearance in mouse at 10 mg/kg, po by LC-MS/MS analysis; type: ADME, organism-based; conditions: in vivo
[11] = Half life in mouse at 5 mg/kg, iv by LC-MS/MS analysis; type: ADME, organism-based; conditions: in vivo
MC-38 [12] = assay: In vivo antitumor activity against mouse MC-38 cells inoculated in C57BL/6 mouse assessed as complete tumor regression (CR) at 60 mg/kg, po Q3D measured for 15 to 20 days; type: functional, organism-based; conditions: time 15-20 day
[13] = Half life in mouse at 10 mg/kg, po by LC-MS/MS analysis; type: ADME, organism-based; conditions: in vivo
[14] = AUC in mouse at 10 mg/kg, po by LC-MS/MS analysis; type: ADME, organism-based; conditions: in vivo
[15] = Clearance in mouse at 5 mg/kg, iv by LC-MS/MS analysis; type: ADME, organism-based; conditions: in vivo
THP-1 [16] = assay: Induction of interferon response in STING knock out human THP-1 cells assessed as fold change in stimulation activity at 13 to 25 uM measured after 24 hrs incubation by QUANTI-Luc4 based microplate reader; type: functional, cell-based; conditions: dose 13-25 µM
THP1-Blue ISG = assay: Induction of STING phosphorylation in human THP1-Blue ISG cells at 13 to 50 uM measured after 3 hrs by Western blot analysis; type: cell-based; conditions: filed as agonist, dose 13-50 µM
THP-1 [17] = assay: Induction of interferon secretion in human THP-1 cells assessed as IFN-beta level at 13 uM measured after 24 hrs by ELISA; type: functional, cell-based
[18] = target: T3, Interferon regulatory factor 3 (Homo sapiens) (UniProt Q14653); assay: Induction of IRF3 phosphorylation in human THP1-Blue ISG cells at 13 to 50 uM measured after 3 hrs by Western blot analysis; type: cell-based; conditions: filed as agonist, dose 13-50 µM
T3 sequence (whole entry): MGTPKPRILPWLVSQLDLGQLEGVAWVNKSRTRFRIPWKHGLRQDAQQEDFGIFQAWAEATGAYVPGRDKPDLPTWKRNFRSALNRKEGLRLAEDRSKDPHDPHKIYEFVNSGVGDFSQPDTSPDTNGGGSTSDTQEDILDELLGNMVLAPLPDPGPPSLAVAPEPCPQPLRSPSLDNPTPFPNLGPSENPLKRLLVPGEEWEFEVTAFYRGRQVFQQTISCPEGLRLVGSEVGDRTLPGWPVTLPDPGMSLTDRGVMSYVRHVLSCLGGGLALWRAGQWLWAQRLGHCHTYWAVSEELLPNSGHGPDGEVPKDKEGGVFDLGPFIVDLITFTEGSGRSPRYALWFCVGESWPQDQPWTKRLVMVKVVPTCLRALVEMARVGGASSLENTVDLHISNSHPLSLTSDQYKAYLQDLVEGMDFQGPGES

| SMILES | EC50 [1] | EC50 [2] | EC50 [3] | IC50 [4] | other results |
| --- | --- | --- | --- | --- | --- |
| COc1cc2sc(C(=O)N[C@@H](CC(=O)O)C(N)=O)c(F)c2cc1OC | > 100 µM |  |  |  |  |
| COc1cc2sc(C(=O)NC[C@@H](C)C(=O)O)c(F)c2cc1OC | 4.7 µM | 36.5 µM | 27.9 µM | 28.7 µM |  |
| COc1ccc2c(F)c(C(=O)NCCC(=O)O)sc2c1 | > 100 µM |  |  |  |  |
| CC[C@@H](CNC(=O)c1sc2cc(OC)c(OC)cc2c1F)C(=O)O | 11.3 µM | 51.3 µM | 45.9 µM | 65.5 µM |  |
| COc1cc2sc(C(=O)NCC(F)(F)C(=O)O)c(F)c2cc1OC | > 100 µM |  |  |  |  |
| COc1cc2cc(C(=O)CCC(=O)O)sc2cc1OC | 4.4 µM | 8.8 µM | 8.1 µM | 22.5 µM | AUC [5]: 7.26 µg·h/mL; Activity (MC-38 [6]): inactive; Cmax [7]: 13.4 µg/mL; Cmax [8]: 25.1 µg/mL; bioavailability [9]: 52%; CL/F [10]: 1.32 L/h/kg; half-life [11]: 18 min; Activity (MC-38 [12]): inactive; half-life [13]: 90 min; AUC [14]: 7.57 µg·h/mL; clearance [15]: 0.688 L/h/kg |
| COc1cc2sc(C(=O)NCCC(O)(C(F)(F)F)C(F)(F)F)c(F)c2cc1OC | > 100 µM |  |  |  |  |
| CC[C@H](CNC(=O)c1sc2cc(OC)c(OC)cc2c1F)C(=O)O | 5.1 µM | 12 µM | 11.9 µM | 24.1 µM | Activity (THP-1 [16]): inactive; Activity (THP1-Blue ISG): Active; Activity (THP-1 [17]): Active; Activity [18]: Active |
| COc1cc2sc(C(=O)NCCC(=O)O)c(F)c2cc1OC(C)C | > 100 µM |  |  |  |  |
| COc1cc2sc(C(=O)NCCC(=O)NS(C)(=O)=O)c(F)c2cc1OC | > 100 µM |  |  |  |  |
| COc1cc2sc(C(=O)NCCC(N)=O)c(F)c2cc1OC | > 100 µM |  |  |  |  |
| COc1cc2sc(C(=O)NCC(C)C(=O)O)c(F)c2cc1OC (racemic) | 7.1 µM | 33.1 µM | 25.1 µM | 30.6 µM |  |
| COc1cc2sc(C(=O)NCCCC(=O)O)c(F)c2cc1OC | 54.6 µM |  |  |  |  |
| COc1cc2sc(C(=O)NCC(=O)O)c(F)c2cc1OC | > 100 µM |  |  |  |  |
| COc1cc2sc(C(=O)NCC(C)C(=O)O)c(F)c2cc1Br (configuration not stated) | > 100 µM |  |  |  |  |
| COc1cc2sc(C(=O)NCCS(N)(=O)=O)c(F)c2cc1OC | > 100 µM |  |  |  |  |
| CCC(CNC(=O)c1sc2cc(Br)c(OC)cc2c1F)C(=O)O (configuration not stated) | 13.2 µM | > 100 µM | > 100 µM | > 100 µM |  |
| CONC(=O)CCNC(=O)c1sc2cc(OC)c(OC)cc2c1F | 33 µM |  |  |  |  |
| CCC(CNC(=O)c1sc2c(F)c(OC)c(OC)cc2c1F)C(=O)O (configuration not stated) | 3.5 µM | 85.9 µM | 92.7 µM | 75.2 µM |  |
| CCC(CNC(=O)c1sc2cc(OC)c(OC)cc2c1F)C(=O)O (racemic) | 4.8 µM | 17.2 µM | 15.7 µM | 24.6 µM |  |
| COc1cc2sc(C(=O)NCC3(C(=O)O)CC3)c(F)c2cc1OC | > 100 µM |  |  |  |  |
| COc1cc2sc(C(=O)NCCC(=O)O)c(C)c2cc1OC | > 100 µM |  |  |  |  |
| C#Cc1c(C(=O)NCCC(=O)O)sc2cc(OC)c(OC)cc12 | > 100 µM |  |  |  |  |

From ChEMBL document CHEMBL6178018, “Design of an Oral STING Agonist through Intramolecular Hydrogen Bond Ring Mimicking to Achieve Complete Tumor Regression” (J Med Chem, 2025)
